# Values quoted from earlier work, collected in patent US20220287355A1, “ORAL PRODUCTS WITH SELF-EMULSIFYING SYSTEM” (NICOVENTURES TRADING LIMITED, priority 2021, published 2022).
# Assays:
# [1] = not given; remark: listed apart in the source
smiles,measurement,setting,value
"C=C(C)[C@@H]1CCC(C)=C[C@H]1c1c(O)cc(CCCCC)cc1O [CBD, cannabidiol]",logP value,,about 6.5
same,"solubility in an aqueous environment (e.g., saliva)",[1],insoluble
